Measured values taken from patent US12252701B2, “Chimeric antigen receptor T cell therapy” (KITE PHARMA, INC., priority 2020, dated 2025).

Assays:
[1] = system: phospho-STAT-1, -3 and -5 in CD4, CD8 T cells and monocytes (CAR T product, PBMCs); test: Intracellular phospho-STAT-1, -3, -5 by flow cytometry in immune cell subsets of CAR T product and PBMCs; assay type: cell-based, human
Procedure: (§1) Further experiments were performed to look at impacts of JAK inhibitors on STAT phosphorylation in various immune cell subsets.

[2] = system: phospho-STAT-1, -3 and -5 in purified CD14+ monocytes; test: Intracellular phospho-STAT-1, -3, -5 by BD PhosphoFlow in purified monocytes; assay type: cell-based, human; settings: for Monocyte-specific pSTAT1 signaling, inhibition / Monocyte-specific pSTAT3 signaling, inhibition / Monocyte-specific pSTAT5 signaling, inhibition: purified CD14+ monocytes
Procedure: as §1

[3] = system: NALM6.GFP.LUC.CD19 target cells; test: Serial killing assay of CAR-T, percent cytotoxicity by luciferase detection; settings: repeat stimulation rounds
[4] = Clinical pharmacokinetic data converted to in vitro concentrations; settings: human, in vivo
Excerpt: Given the different potencies of the JAK inhibitors and different pharmacokinetic properties for each drug, it was sought to test each drug at a relevant range of physiological concentrations based on clinical dosing and reported pharmacokinetic data from repeat dose studies. Reported Cmax values in patient sera were converted to in vitro concentrations and adjusted for reported plasma protein binding.

[5] = CAR T cell-derived supernatant, 30 min
[6] = purified monocytes, CAR T derived cytokines/supernatant stimulation, 30 min

SMILES: Nc1nc2cccc(-c3ccc(CN4CCS(=O)(=O)CC4)cc3)n2n1 [GS-829845]
- Primary Cell IL-6 pSTAT1 signaling (% inhibition) ([1]; CD4 CART cells): 18%
- Primary Cell IL-6 pSTAT3 signaling (% inhibition) ([1]; CD4 CART cells): 6%
- Primary Cell IL-6 pSTAT5 signaling (% inhibition) ([1]; CD4 CART cells): 29%
- Primary Cell IL-6 pSTAT1 signaling (% inhibition) ([1]; CD8 CART cells): 11%
- Primary Cell IL-6 pSTAT3 signaling (% inhibition) ([1]; CD8 CART cells): 2%
- Primary Cell IL-6 pSTAT5 signaling (% inhibition) ([1]; CD8 CART cells): 17%
- effect on phosphorylated-STAT-1, -STAT-3 and -STAT5 levels ([1]; IL-6 stimulation): only a fraction of the filgotinib suppression levels
- Primary cell GM-CSF-pSTAT5, inhibition ([1]; Monocytes within bulk PBMCs): 3%
- Primary Cell IL-6 pSTAT1 signaling (% inhibition) ([1]; PBMC CD4 T cells): 25%
- Primary Cell IL-6 pSTAT3 signaling (% inhibition) ([1]; PBMC CD4 T cells): 15%
- Primary Cell IL-6 pSTAT5 signaling (% inhibition) ([1]; PBMC CD4 T cells): 36%
- Primary Cell IL-6 pSTAT1 signaling (% inhibition) ([1]; PBMC CD8 T cells): 10%
- Primary Cell IL-6 pSTAT3 signaling (% inhibition) ([1]; PBMC CD8 T cells): 11%
- Primary Cell IL-6 pSTAT5 signaling (% inhibition) ([1]; PBMC CD8 T cells): 24%
- Primary Cell IL-6 pSTAT1 signaling (% inhibition) ([1]; PBMC Monocytes): 24%
- Primary Cell IL-6 pSTAT3 signaling (% inhibition) ([1]; PBMC Monocytes): 17%
- Primary Cell IL-6 pSTAT5 signaling (% inhibition) ([1]; PBMC Monocytes): 21%
- Primary cell GM-CSF-pSTAT5, inhibition ([1]; T cells within bulk PBMCs): 16%
- Monocyte-specific pSTAT1 signaling, inhibition [2, 5]: 32%
- Monocyte-specific pSTAT3 signaling, inhibition [2, 5]: 80%
- Monocyte-specific pSTAT5 signaling, inhibition [2, 5]: 3%
- Monocyte-specific pSTAT1 signaling, inhibition ([2]; rh-GM-CSF-induced): na/ni
- Monocyte-specific pSTAT3 signaling, inhibition ([2]; rh-GM-CSF-induced): na/ni
- Monocyte-specific pSTAT5 signaling, inhibition ([2]; rh-GM-CSF-induced): 0%
- Monocyte-specific pSTAT1 signaling, inhibition ([2]; rhIFNg-induced): 61%
- Monocyte-specific pSTAT3 signaling, inhibition ([2]; rhIFNg-induced): 100%
- Monocyte-specific pSTAT5 signaling, inhibition ([2]; rhIFNg-induced): 100%
- Monocyte-specific pSTAT1 signaling, inhibition ([2]; rhIL6-induced): na/ni
- Monocyte-specific pSTAT3 signaling, inhibition ([2]; rhIL6-induced): 33%
- Monocyte-specific pSTAT5 signaling, inhibition ([2]; rhIL6-induced): na/ni
- pSTAT1 inhibition [2, 6]: 32%
- pSTAT3 inhibition [2, 6]: 80%
- impact on CAR-T serial killing (percent cytotoxicity) ([3]; E:T of 1:1, dose titration): enhance serial killing
- impact on CAR-T serial killing (percent cytotoxicity) ([3]; E:T of 1:3, dose titration): no impact
- clinically relevant dose level (in vitro concentration) [4]: ~4 µM
